# According to ChEMBL document CHEMBL1140967, “Regiospecific microwave-assisted synthesis and cytotoxic activity against human breast cancer cells of (RS)-6-substituted-7- or 9-(2,3-dihydro-5H-1,4-benzodioxepin-3-yl)-7H- or -9H-purines” (Eur J Med Chem, 2008):
# Assays:
# MCF7 [1] = experiment: Antiproliferative activity against human MCF7 cells after 6 days by SRB assay; details: MCF7, 144 h
# MCF7 [2] = experiment: Cell cycle arrest in human MCF7 cells assessed as accumulation at S phase at cytotoxic IC50 after 48 hrs by FACS assay; type: functional
# MCF7 [3] = experiment: Cell cycle arrest in human MCF7 cells assessed as accumulation at G0/G1 phase at cytotoxic IC50 after 48 hrs by FACS assay; type: functional
# MCF7 [4] = experiment: Cell cycle arrest in human MCF7 cells assessed as accumulation at G2/M phase at cytotoxic IC50 after 48 hrs by FACS assay; type: functional
# MCF7 [5] = experiment: Induction of apoptosis in human MCF7 cells at cytotoxic IC50 after 48 hrs by Annexin-V based assay; type: functional
SMILES,IC50 (MCF7 [1]) [µM],other results
CSc1ncnc2[nH]cnc12,23.6,–
c1ccc(Sc2ncnc3[nH]cnc23)cc1,31,–
Fc1ccc(Sc2ncnc3[nH]cnc23)cc1,31.6,–
Nc1nc(OCC2CCCCC2)c2nc[nH]c2n1,24.2,–
c1ccc(Oc2ncnc3[nH]cnc23)cc1,28.4,–
O=c1ccn(C2COc3ccccc3CO2)c(=O)[nH]1 (configuration not stated),5,–
c1nc(OCC2CCCCC2)c2nc[nH]c2n1,32.3,–
C=CCOc1ncnc2[nH]cnc12,44.7,–
Clc1ccc(Sc2ncnc3[nH]cnc23)c(Cl)c1,21.4,–
c1ccc(Oc2ncnc3c2ncn3C2COc3ccccc3CO2)cc1 (racemic),24.7,–
Clc1ccc(Sc2ncnc3c2ncn3C2COc3ccccc3CO2)c(Cl)c1 (racemic),12,–
c1ccc2c(c1)COC(n1cnc3c(OCC4CCCCC4)ncnc31)CO2 (racemic),11.6,–
Fc1ccc(Sc2ncnc3ncn(C4COc5ccccc5CO4)c23)cc1 (racemic),14.1,–
Fc1ccc(Sc2ncnc3c2ncn3C2COc3ccccc3CO2)cc1 (racemic),11.2,–
c1ccc2c(c1)COC(n1cnc3ncnc(OCC4CCCCC4)c31)CO2 (racemic),13.4,–
c1ccc(Oc2ncnc3ncn(C4COc5ccccc5CO4)c23)cc1 (racemic),21.1,–
c1ccc(Sc2ncnc3ncn(C4COc5ccccc5CO4)c23)cc1 (racemic),15.6,–
Clc1ccc(Sc2ncnc3ncn(C4COc5ccccc5CO4)c23)c(Cl)c1 (racemic),8.4,Activity (MCF7 [2]): 22.73%; Activity (MCF7 [3]): 58.1%; Activity (MCF7 [4]): 19.16%; Activity (MCF7 [5]): 65.28%
C=CCOc1ncnc2c1ncn2C1COc2ccccc2CO1 (racemic),5.04,Activity (MCF7 [2]): 37%; Activity (MCF7 [3]): 55.63%; Activity (MCF7 [4]): 7.37%; Activity (MCF7 [5]): 44.47%
CSc1ncnc2c1ncn2C1COc2ccccc2CO1 (racemic),24,–
c1ccc(Sc2ncnc3c2ncn3C2COc3ccccc3CO2)cc1 (racemic),7.12,Activity (MCF7 [2]): 26.82%; Activity (MCF7 [3]): 59.1%; Activity (MCF7 [4]): 11.08%; Activity (MCF7 [5]): 73.37%
CSc1ncnc2ncn(C3COc4ccccc4CO3)c12 (racemic),31.8,–
C=CCOc1ncnc2ncn(C3COc4ccccc4CO3)c12 (racemic),20.9,–
O=c1[nH]cc(F)c(=O)[nH]1 [FLUOROURACIL],4.32,–
CC(=O)O[C@H]1C(=O)[C@@]2(C)[C@H]([C@H](OC(=O)c3ccccc3)[C@]3(O)C[C@H](OC(=O)[C@H](O)[C@@H](NC(=O)c4ccccc4)c4ccccc4)C(C)=C1C3(C)C)[C@]1(OC(C)=O)CO[C@@H]1C[C@@H]2O [PACLITAXEL],–,Activity (MCF7 [5]): 43%
